The test system of test [1] is LNCaP, C4-2, and Rv1 cells. In words: CyQuant growth assay 7 days after viral transduction. Format: cell-based, human. Conditions: 0.05 nM R1881; LNCaP, C4-2, and Rv1 cells; day 7. From the text: FIG. 5A illustrates the gene structure of LCK and location of each shRNA targeting LCK. MISSION shRNAs targeting human LCK (NM_005356) and the pLKO vector control were purchased from ThermoFisher. Each shRNA was validated for efficiency of LCK or HULLK knockdown in Jurkat and PCa cells by qPCR. (C) The results of CyQuant Assay measuring DNA content as a surrogate for cell number 7 days after shRNA transduction is shown in FIG. 5C. Growth was compared to untreated empty vector control and the values were averaged across biological replicates. Error bars represent standard error of the mean. The relative effect of four independent shRNAs on cell growth in LNCaP, C42, and Rv1 cells in the absence or presence of 0.05 nM R1881, n=3. FIG. 5D plots the data for the relative effect of HULLK overexpression on cell growth in LNCaP, C42, and Rv1 cells in the absence or presence of 0.05 nM R1881, n=3. Statistical analysis was performed using ANOVA and Tukey test.
CyQuant Growth Assays: Assay was performed as previously described (18). Briefly, shRNA or pLKO control virus was added to 1 μg/ml fibronectin-coated 96 well plates. Cells were plated in RPMI-1640 plus 5% CSS with vehicle, 0-0.05 nM R1881, and/or 10 μM Enzalutamide (Selleck Chemicals). Quantification was performed on Day 7 using a BioTek Synergy 2 plate reader.
To explore the functional role of HULLK in PCa, the effects of HULLK knockdown on PCa cell growth was examined. LNCaP, C4-2, and Rv1 cells were transduced with lentiviral particles expressing four independent shRNAs specific for LCK or pLKO empty vector control in the presence or absence of 0.05 nM R1881. Two shRNAs were targeting the carboxy-terminal of LCK (shLCK-3 and shLCK-4) and should decrease HULLK levels; and two shRNAs were directed toward the amino-terminal (shLCK-1 and shLCK-2) and should not affect HULLK expression (FIG. 5A). […] As a control, all four shRNAs efficiently knocked LCK down 60-90% in Jurkat cells. Seven days following viral transduction, cellular growth was measured using CyQuant, which uses DNA content as a surrogate for cell number. In the absence of hormone, the four shRNAs had no dramatic effects on growth in LNCaP or C4-2 cells (FIG. 5C).
The complement experiment of evaluating the effects of overexpressing HULLK on cell growth was also performed. LNCaP, C4-2, and Rv1 cells were transduced with lentivirus expressing either vector or HULLK constructs in the presence or absence of 0.05 nM R1881, and proliferation was calculated seven days following viral transduction.

The next test concerns HULLK. Description: qPCR of HULLK (LCK E11, LCK 3'UTR) in cytoplasmic and nuclear fractions of LNCaP cells. Format: cell-based, human. Conditions: 1 nM R1881, 24 hrs. The method, then: FIGS. 3A and 3B illustrate the results of studies designed to characterize HULLK. […] LNCaP cells were seeded for 48 hrs and treated with 1 nM R1881 for 24 hrs. RNA was collected and cDNA was synthesized using strand-specific primers. qPCR was performed with two independent LCK primer sets that amplify HULLK, n=3. […] LNCaP cells were seeded for 48 hrs and treated with 1 nM R1881 for 24 hrs. Whole cell lysates were separated into cytoplasmic and nuclear fractions by centrifugation. RNA was collected from each fraction and cDNA was synthesized using the iScript cDNA synthesis kit. qPCR was performed with two independent LCK primer sets that amplify HULLK, and cytoplasmic and nuclear control genes, n=3.
Some lncRNAs show preferential accumulation in the cytoplasm or nucleus, while other lncRNAs are equally expressed in both compartments. To determine the intracellular localization of HULLK, total RNA was collected to synthesize cDNA from cytoplasmic and nuclear fractions of LNCaP cells starved of hormone or exposed to 1 nM R1881 for 24 hrs and carried out qPCR with LCK E11 and LCK 3′UTR primers to amplify HULLK.

Structures are written as SMILES.

With `C[C@]1(O)CC[C@H]2[C@@H]3CCC4=CC(=O)CCC4=C3C=C[C@@]21C` [R1881], the “cell growth of vector-expressing control cells exposed to R1881” value in test [1] is “expected increase in cell growth”. Also, in the test on HULLK (cytoplasmic fraction), the “hormone increase of LCK 3'UTR transcript levels” value is on record as about 7.6 fold and the “hormone increase of LCK E11 transcript levels” value is given as “approximately 5.3 fold”. In addition, in the test with HULLK (nuclear fraction), the “nuclear transcript amounts (LCK E11, LCK 3'UTR) in response to androgens” value is “not influenced by androgens”.

For the origin of these results see US12319967B2, “Methods and compositions for diagnosing and treating prostate cancer based on long noncoding RNA overlapping the LCK gene that regulates prostate cancer cell growth” (University of Virginia Patent Foundation, priority 2019, dated 2025).
